As a reminder, the IC50 is the midpoint of a concentration-inhibition curve. A high value points to lower potency.

What all share (type): cell-based, Human
One data set relates to H1299 cells. In words: CCK8 cell viability, H1299. The settings on record: H1299, 25 μM, 48 h. As for the experimental part:
(§1) Human lung cancer cell line H460 and H1299, human liver normal cell line LO2 were bought from ATCC. DMEM or RPMI 1640 was used as the cell culture medium with 10% FBS and 1% penicillin/streptomycin. Cells were maintained in an incubator with 37°C humidified atmosphere and 5% CO2.
(§2) Cell viability and IC50 values were determined using the CCK8 assay kit. Cells were seeded at a density of 5 × 10^3 cells per well in a 96-well plate. After overnight adhesion, 25 μM of compounds or vehicle control DMSO which all dissolved in the culture medium were added to cells and cultured for 48 h or 72 h. CCK8 reagent, dissolved in the medium, was then added to cells and incubated for 1 h. The absorbance at 450 nm was measured using a microplate spectrophotometer (Thermo). Cell viability was calculated, with the untreated group taken as 100%. For IC50 values determination, different concentrations (0, 0.4 μM, 2 μM, 10 μM, 20 μM, 50 μM) of compounds were added to cells for 72 h. Subsequent CCK8 measurement allowed the calculation of inhibition percentage based on cell viability. The IC50 values were computed by the prism statistical software. The CCK-8 assay was conducted three times and the repetitions in each time were at least three. All the values were expressed as Mean ± SD, p < 0.05 was considered statistically significant.
(§3) In order to assess the potential cytotoxicity of the synthesized compounds, we selected two types of human non-small-cell lung cancer cell line, H460 and H1299. Cell viability and cytotoxicity were evaluated using the CCK8 assay ([Xu et al., 2018]). The cells were treated with 25 μM of compounds 5a-5s and 6a-6i for 48h and 72 h. […] In contrast, no compounds managed to reduce H1299 cell viability to less than 50%, yet compounds 5i, 5m, 6h and 6i achieved cell viability rates below 70%. […] It is worth noting that minimal effects on the cell viability of the normal cell line LO2 were observed when exposed to these compounds. Further, we determined the half-maximal inhibitory concentration (IC50) of selected compounds against H460 cells, the results of which were summarized in Table 3.

For data set [1], the system named is H460 cells. The experiment in a line: Apoptosis assay, Annexin V-FITC/PI flow cytometry, H460. The settings on record: H460, 2, 4 and 8 μM, 72 h. As for the experimental part:
Cells with a density of 3 × 10^5 cells per well were seeded in 6-well plates. After overnight adhesion, cells were treated with different concentrations of compounds for 72 h. Cells were harvested and stained with Annexin V-FITC and propidium iodide. Apoptotic ratio was quantified using the flow cytometry (BD Biosciences) and analyzed using the FlowJo software v10. Values were expressed as Mean ± SD, p < 0.05 was considered statistically significant. Data were performed using Graph Prim 7.0.
Apoptosis is a programmed-controlled process of cell self-destruction, and increased cell apoptosis can lead to cell death ([Wang et al., 2023]). To explore the preliminary molecular mechanisms of the synthesized compounds action, the apoptotic activity of compound 5i was evaluated by comparing the percentage of apoptotic cells with untreated cells using flow cytometry after staining with Annexin V-FITC and PI ([Chen et al., 2022a]). This assay facilitates the detection of necrotic cells (Q1, AV-/PI+), late apoptotic cells (Q2, AV+/PI+), early apoptotic cells (Q3, AV+/PI-), and live cells (Q4, AV-/PI-). H460 and H1299 cells were treated with different doses of compound 5i for 72h, and cells were collected, stained, and analyzed. The proportion of early and late apoptotic cells was added and their ratio relative to the total cells was calculated.
For orientation: Flow cytometry measures light scatter and fluorescence of single cells or particles in a stream.

In data set [2] the test system is H460 cells. In words: CCK8 cell viability and IC50 measurement, H460. The procedure: as §1, §2, §3

In the data set with H1299 cells, `COc1c2n(cc(C(=O)Nc3cccc(-c4cn(-c5ccccc5OC(F)(F)F)nn4)c3)c1=O)CC1OCC(C)N1C2=O` (stereo not shown) [Compound 5i] displayed a Cell viability of 90.47%. Further, in the data set on H460 cells [1], the “apoptotic cells (early + late)” value is reported as “significant increase in apoptotic cells”. Besides, the “cell proliferation inhibition rate” value in the data set with H460 cells [2] (H460, 72-h treatment) is on record as “exceed 50%”. The compound also came in with an IC50 in the data set on H460 cells [2] (H460, 72 h, CCK8) of 6.06 ± 1.8 µM.

These data come from publication PMC10547880, “Synthesis and biological evaluation of novel 1,2,3-triazole hybrids of cabotegravir: identification of potent antitumor activity against lung cancer” (Frontiers in Pharmacology, 2023).
